BindingDB's records for patent US20190276450 (Abbvie, 2019)

Target: Tyrosine-protein kinase JAK1 (Homo sapiens, UniProt P23458)
Assay: JAK1 (PSTAT3 TF1) Alpha Screen Assay
Method: IL-6 is known to transduce its signal through IL-6 receptor via Jak1. Activity against Jak was therefore measured by determining inhibition of IL-6 induced phosphorylation of STAT3 in TF1 cells. From these tests, the EC50 (effective concentration for 50% maximal response) values were determined in 1 μM for the test compounds.

Sequence of Tyrosine-protein kinase JAK1 (P23458 whole entry): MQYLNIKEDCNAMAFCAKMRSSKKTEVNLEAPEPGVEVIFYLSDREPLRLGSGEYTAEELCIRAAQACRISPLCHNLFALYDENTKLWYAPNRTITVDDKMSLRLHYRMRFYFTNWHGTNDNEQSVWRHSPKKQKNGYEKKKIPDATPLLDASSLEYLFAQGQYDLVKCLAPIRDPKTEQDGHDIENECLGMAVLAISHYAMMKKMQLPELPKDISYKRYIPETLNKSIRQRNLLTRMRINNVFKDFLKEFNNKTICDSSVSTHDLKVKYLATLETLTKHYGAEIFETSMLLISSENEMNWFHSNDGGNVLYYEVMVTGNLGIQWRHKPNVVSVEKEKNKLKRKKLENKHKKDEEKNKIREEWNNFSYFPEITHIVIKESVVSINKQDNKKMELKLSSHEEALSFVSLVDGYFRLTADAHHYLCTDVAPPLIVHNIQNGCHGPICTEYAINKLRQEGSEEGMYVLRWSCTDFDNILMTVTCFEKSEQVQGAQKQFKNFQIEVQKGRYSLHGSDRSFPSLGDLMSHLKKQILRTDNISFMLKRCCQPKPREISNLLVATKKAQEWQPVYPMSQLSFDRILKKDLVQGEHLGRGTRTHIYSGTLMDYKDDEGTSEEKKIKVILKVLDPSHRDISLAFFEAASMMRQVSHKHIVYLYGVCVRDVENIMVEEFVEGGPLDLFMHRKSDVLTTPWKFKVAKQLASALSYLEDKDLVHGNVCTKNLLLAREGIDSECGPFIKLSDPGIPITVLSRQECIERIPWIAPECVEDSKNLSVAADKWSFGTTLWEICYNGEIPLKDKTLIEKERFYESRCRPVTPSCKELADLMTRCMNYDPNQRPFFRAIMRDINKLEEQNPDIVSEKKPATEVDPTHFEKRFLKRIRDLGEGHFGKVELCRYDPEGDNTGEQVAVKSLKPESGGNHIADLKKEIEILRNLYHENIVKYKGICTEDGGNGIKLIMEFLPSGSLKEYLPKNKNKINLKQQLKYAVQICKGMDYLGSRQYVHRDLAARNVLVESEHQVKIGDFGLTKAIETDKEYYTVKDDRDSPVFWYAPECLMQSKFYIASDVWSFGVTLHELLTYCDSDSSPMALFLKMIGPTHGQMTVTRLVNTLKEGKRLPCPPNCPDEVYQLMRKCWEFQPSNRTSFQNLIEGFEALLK

EC50 [nM] | Compound
18000 | CC[C@@]1(c2cccc(-c3cn(C)c4cnc(NC(C)=O)cc34)n2)CCOC1 [US20190276450, Example 2.3]
11100 | Cn1cc(-c2cccc(C3(O)COC3)n2)c2cc(NC(N)=O)ncc21 [US20190276450, Example 14]
45000 | COc1cc(-c2cn(C)c3cnc(NC(C)=O)cc23)nc([C@]2(OC)CCOC2)c1 [US20190276450, Example 20]
32000 | CO[C@@]1(c2cc(C)cc(-c3cn([C@H]4C[C@@H](C#N)C4)c4cnc(NC(C)=O)cc34)n2)CCOC1 [US20190276450, Example 17.5]
68000 | CO[C@@]1(c2cc(C(F)F)cc(-c3cn([C@H]4CCOC4)c4cnc(NC(N)=O)cc34)n2)CCOC1 [US20190276450, Example 12b.3]

Target: Non-receptor tyrosine-protein kinase TYK2 (Homo sapiens, UniProt P29597)
Sequence (P29597 whole entry): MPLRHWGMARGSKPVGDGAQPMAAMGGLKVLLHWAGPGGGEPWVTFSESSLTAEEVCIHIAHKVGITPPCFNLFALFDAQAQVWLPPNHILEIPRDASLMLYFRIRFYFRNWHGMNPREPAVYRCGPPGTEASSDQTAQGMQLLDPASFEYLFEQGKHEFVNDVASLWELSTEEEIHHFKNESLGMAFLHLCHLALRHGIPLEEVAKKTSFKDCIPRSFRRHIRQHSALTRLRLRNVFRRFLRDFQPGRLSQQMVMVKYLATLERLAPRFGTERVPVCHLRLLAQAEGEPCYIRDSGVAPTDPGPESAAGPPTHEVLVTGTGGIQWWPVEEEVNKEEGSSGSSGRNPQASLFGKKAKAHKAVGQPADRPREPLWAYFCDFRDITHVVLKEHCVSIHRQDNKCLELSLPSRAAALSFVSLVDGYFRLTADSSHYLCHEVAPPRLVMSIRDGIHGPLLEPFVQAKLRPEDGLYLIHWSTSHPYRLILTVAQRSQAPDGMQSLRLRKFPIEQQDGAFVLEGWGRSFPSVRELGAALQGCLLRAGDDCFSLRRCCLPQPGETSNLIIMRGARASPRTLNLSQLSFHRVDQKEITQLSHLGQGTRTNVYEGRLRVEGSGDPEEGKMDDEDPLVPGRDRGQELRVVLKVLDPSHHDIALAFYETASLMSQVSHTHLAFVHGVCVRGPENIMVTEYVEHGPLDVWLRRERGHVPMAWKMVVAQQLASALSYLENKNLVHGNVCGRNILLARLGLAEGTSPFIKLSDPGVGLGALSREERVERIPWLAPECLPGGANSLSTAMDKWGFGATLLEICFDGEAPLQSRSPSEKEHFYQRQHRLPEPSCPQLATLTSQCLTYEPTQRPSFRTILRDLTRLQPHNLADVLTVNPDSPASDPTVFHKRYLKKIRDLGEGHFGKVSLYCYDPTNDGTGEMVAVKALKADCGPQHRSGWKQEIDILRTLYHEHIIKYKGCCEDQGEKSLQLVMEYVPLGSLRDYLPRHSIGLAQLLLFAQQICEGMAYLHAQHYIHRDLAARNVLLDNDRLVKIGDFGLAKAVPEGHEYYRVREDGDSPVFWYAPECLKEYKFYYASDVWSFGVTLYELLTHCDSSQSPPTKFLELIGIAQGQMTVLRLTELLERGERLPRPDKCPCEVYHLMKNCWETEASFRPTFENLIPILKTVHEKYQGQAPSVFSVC
Assay: TYK2 (TYK2/JAK2 PSTAT4 T-BLAST) Alpha Screen Assay
Method: IL-12 is known to transduce its signal through IL-12 receptor via Jak2 and/or Tyk2. For that reason, the activity against Tyk2/Jak2 was measured by determining the inhibition of IL-12 induced phosphorylation of STAT4 in T-blast cells. […] See, e.g., Sohn et al., J. Immunology (2013) 2205-2216.

EC50 [nM] | Compound
96 | CC[C@@]1(c2cccc(-c3cn(C)c4cnc(NC(C)=O)cc34)n2)CCOC1 [US20190276450, Example 2.3]
310 | COCc1cc(-c2c[nH]c3cnc(NC(C)=O)cc23)nc([C@]2(OC)CCOC2)c1 [US20190276450, Example 2-NH]
339 | CC(=O)Nc1cc2c(-c3cc(OC(C)C)cc(C4(O)COC4)n3)cn(C)c2cn1 [US20190276450, Example 14.3]
563 | Cn1cc(-c2cccc(C3(O)COC3)n2)c2cc(NC(N)=O)ncc21 [US20190276450, Example 14]
137 | COc1cc(-c2cn(C)c3cnc(NC(C)=O)cc23)nc([C@]2(OC)CCOC2)c1 [US20190276450, Example 20]
330 | COCc1cc(-c2nn(C)c3cnc(NC(C)=O)cc23)nc([C@]2(OC)CCOC2)c1 [US20190276450, Example 23]
319 | COCc1cc(-c2cn(C)c3cnc(NC(N)=O)cc23)nc([C@@]2(OC)CCOC2)c1 [US20190276450, Example 12.4]
5 | CO[C@@]1(c2cc(C)cc(-c3cn([C@H]4C[C@@H](C#N)C4)c4cnc(NC(C)=O)cc34)n2)CCOC1 [US20190276450, Example 17.5]
288 | CNC(=O)Nc1cc2c(-c3cccc([C@]4(OC)CCOC4)n3)cn(C)c2cn1 [US20190276450, Example 1a.2]
1520 | CO[C@@]1(c2cccc(-c3c[nH]c4cnc(NC(C)=O)cc34)n2)CCOC1 [US20190276450, Example 17-NH]
56 | CO[C@@]1(c2cc(C(F)F)cc(-c3cn([C@H]4CCOC4)c4cnc(NC(N)=O)cc34)n2)CCOC1 [US20190276450, Example 12b.3]
1320 | COCCOc1cc(-c2cn(C)c3cnc(NC(C)=O)cc23)nc([C@@]2(CO)CCOC2)c1 [US20190276450, Example 22.9]
537 | CO[C@@]1(c2cccc(-c3cn(C4(F)COC4)c4cnc(NC(C)=O)cc34)n2)CCOC1 [US20190276450, Example 18a]
310 | CO[C@@]1(c2cccc(-c3cn(C)c4cnc(NC(C)=O)cc34)n2)CCOC1 [US20190276450, Example 16]
716 | CO[C@]1(c2cncc(-c3cn(C)c4cnc(NC(C)=O)cc34)n2)CCOC1 [US20190276450, Example 2.9]
1590 | CO[C@]1(c2cccc(-c3cn(C)c4cnc(NC(C)=O)cc34)n2)CCOC1 [US20190276450, Example 16a]
198 | CO[C@@]1(c2cccc(-c3cn(C4(C)COC4)c4cnc(NC(N)=O)cc34)n2)CCOC1 [US20190276450, Example 19]
353 | COc1cc(-c2cn(C3COC3)c3cnc(NC(C)=O)cc23)nc([C@@]2(OC)CCOC2)c1 [US20190276450, Example 4.4]
254 | CO[C@]1(c2cc(C(F)F)cc(-c3cn(C)c4cnc(NC(C)=O)cc34)n2)CCOC1 [US20190276450, Example 2.7]
494 | CO[C@@]1(c2cccc(-c3cn(C4(C)COC4)c4cnc(NC(C)=O)cc34)n2)CCOC1 [US20190276450, Example 18]
694 | CO[C@]1(c2cc(C#N)cc(-c3cn(C)c4cnc(NC(C)=O)cc34)n2)CCOC1 [US20190276450, Example 2.5]
551 | CO[C@]1(c2cc(C#N)cc(-c3cn(C)c4cnc(NC(N)=O)cc34)n2)CCOC1 [US20190276450, Example 12.2]
578 | CO[C@@]1(c2cc(C#N)cc(-c3cn([C@H]4CC4(F)F)c4cnc(NC(N)=O)cc34)n2)CCOC1 [US20190276450, Example 12a.2]
468 | CO[C@]1(c2cccc(-c3cn(C)c4cnc(NC(N)=O)cc34)n2)CCOC1 [US20190276450, Example 1a]

EC50 [nM] | Compound
749 | CO[C@]1(c2cc(C#N)cc(-c3cn([C@@H]4CC4(F)F)c4cnc(NC(C)=O)cc34)n2)CCOC1 [US20190276450, Example 2a.2]
699 | COCc1cc(-c2cn(C)c3cnc(NC(C)=O)cc23)nc([C@@]2(OC)CCOC2)c1 [US20190276450, Example 2.4]
1310 | CC(=O)Nc1cc2c(-c3cccc([C@@]4(CO)CCOC4)n3)cn(C)c2cn1 [US20190276450, Example 21a]
3140 | COC1(c2cccc(-c3c[nH]c4cnc(NC(C)=O)cc34)n2)CCOC1 (configuration not stated) [US20190276450, Example 16-NH]
1590 | CO[C@@]1(c2cc(C#N)cc(-c3cn([C@H]4CC4(F)F)c4cnc(NC(C)=O)cc34)n2)CCOC1 [US20190276450, Example 2a.5]
2030 | CO[C@@]1(c2cccc(-c3cn([C@H]4CC4(F)F)c4cnc(NC(N)=O)cc34)n2)CCOC1 [US20190276450, Example 1.3]
616 | CO[C@]1(c2cc(C(F)F)cc(-c3cn(C4COC4)c4cnc(NC(C)=O)cc34)n2)CCOC1 [US20190276450, Example 4.2]
2360 | CO[C@]1(c2cc(C#N)cc(-c3cn([C@H]4CC4(F)F)c4cnc(NC(C)=O)cc34)n2)CCOC1 [US20190276450, Example 2a.4]
124 | CO[C@@]1(c2cc(O[C@H]3C[C@@H](O)C3)cc(-c3cn(C)c4cnc(NC(C)=O)cc34)n2)CCOC1 [US20190276450, Example 11.2]
561 | COc1cc(-c2cn([C@@H]3CCOC3)c3cnc(NC(C)=O)cc23)nc([C@@]2(OC)CCOC2)c1 [US20190276450, Example 5.3]
673 | COc1cc(-c2cn(C)c3cnc(NC(C)=O)cc23)nc(C2(O)COC2)c1 [US20190276450, Example 14.2]
492 | Cn1cc(-c2cccc(C3COC3)n2)c2cc(NC(N)=O)ncc21 [US20190276450, Example 13]
2220 | CC[C@]1(c2cccc(-c3cn(C)c4cnc(NC(C)=O)cc34)n2)CCOC1 [US20190276450, Example 2.3a]
352 | CO[C@@]1(c2cc(OCC#N)cc(-c3cn(C)c4cnc(NC(C)=O)cc34)n2)CCOC1 [US20190276450, Example 6.3]
368 | CO[C@@]1(c2cncc(-c3cn(C)c4cnc(NC(C)=O)cc34)n2)CCOC1 [US20190276450, Example 2.10]
906 | COc1cc(-c2cn(C)c3cnc(NC(C)=O)cc23)nc([C@@]2(OC)CCOC2)c1 [US20190276450, Example 20a]
3100 | COc1cc(-c2cn(C)c3cnc(NC(C)=O)cc23)nc([C@@]2(CO)CCOC2)c1 [US20190276450, Example 22.7]
1840 | NC(=O)Nc1cc2c(-c3cccc(C4(O)COC4)n3)cn([C@H]3CCOC3)c2cn1 [US20190276450, Example 15.2]
388 | CC[C@]1(c2cccc(-c3cn(C)c4cnc(NC(N)=O)cc34)n2)CCOC1 [US20190276450, Example 3.3]
477 | CO[C@@]1(c2cccc(-c3cn([C@H]4C[C@@H](C#N)C4)c4cnc(NC(C)=O)cc34)n2)CCOC1 [US20190276450, Example 17a]
496 | CO[C@]1(c2cc(O[C@H]3C[C@H](O)C3)cc(-c3cn(C)c4cnc(NC(C)=O)cc34)n2)CCOC1 [US20190276450, Example 11a]
268 | CO[C@@]1(c2cc(C#N)cc(-c3cn(C)c4cnc(NC(C)=O)cc34)n2)CCOC1 [US20190276450, Example 2.6]
8 | CO[C@@]1(c2cc(C(F)F)cc(-c3cn([C@H]4C[C@@H](C#N)C4)c4cnc(NC(C)=O)cc34)n2)CCOC1 [US20190276450, Example 17.3]
